# ChEMBL document CHEMBL1201862, “PubChem BioAssay data set” (2004)
# Calls of active or inactive are those of the source.
# Tests used:
# [1] = target: T1, Intestinal-type alkaline phosphatase (Homo sapiens, UniProt P09923); experiment: human intestinal alkaline phosphatase activators, dose response, biochemical, luminescence, uHTS hits (AID 463120); format: functional
# [2] = target: Intestinal-type alkaline phosphatase (Mus musculus, UniProt P24822); experiment: PubChem AID 488874; format: functional
# Chain of Intestinal-type alkaline phosphatase (Mus musculus, UniProt P24822) (P24822 whole entry): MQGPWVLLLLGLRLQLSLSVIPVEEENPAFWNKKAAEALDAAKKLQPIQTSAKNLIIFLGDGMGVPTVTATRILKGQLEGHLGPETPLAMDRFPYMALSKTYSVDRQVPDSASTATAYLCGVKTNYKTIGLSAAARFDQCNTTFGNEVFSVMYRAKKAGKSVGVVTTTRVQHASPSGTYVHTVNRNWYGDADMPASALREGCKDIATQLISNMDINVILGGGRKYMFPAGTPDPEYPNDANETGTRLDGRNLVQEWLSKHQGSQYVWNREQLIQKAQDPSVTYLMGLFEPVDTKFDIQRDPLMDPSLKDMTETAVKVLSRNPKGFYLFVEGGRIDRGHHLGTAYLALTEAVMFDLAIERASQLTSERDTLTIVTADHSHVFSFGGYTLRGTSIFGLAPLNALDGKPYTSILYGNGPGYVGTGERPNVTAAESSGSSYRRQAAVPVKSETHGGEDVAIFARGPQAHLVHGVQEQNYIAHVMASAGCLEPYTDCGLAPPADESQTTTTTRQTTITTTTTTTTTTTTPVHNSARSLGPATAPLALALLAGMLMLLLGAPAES
# [3] = target: T2, Alkaline phosphatase, tissue-nonspecific isozyme (Homo sapiens, UniProt P05186); experiment: activation of tissue-nonspecific alkaline phosphatase – biochemical, TNAP isozyme, human IAP uHTS hits, selectivity assay for human IAP activator project, dose response (AID 488886); format: functional;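 note: potency of compounds raising TNAP activity as a selectivity check on IAP activators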
# T2 sequence (P05186 whole entry): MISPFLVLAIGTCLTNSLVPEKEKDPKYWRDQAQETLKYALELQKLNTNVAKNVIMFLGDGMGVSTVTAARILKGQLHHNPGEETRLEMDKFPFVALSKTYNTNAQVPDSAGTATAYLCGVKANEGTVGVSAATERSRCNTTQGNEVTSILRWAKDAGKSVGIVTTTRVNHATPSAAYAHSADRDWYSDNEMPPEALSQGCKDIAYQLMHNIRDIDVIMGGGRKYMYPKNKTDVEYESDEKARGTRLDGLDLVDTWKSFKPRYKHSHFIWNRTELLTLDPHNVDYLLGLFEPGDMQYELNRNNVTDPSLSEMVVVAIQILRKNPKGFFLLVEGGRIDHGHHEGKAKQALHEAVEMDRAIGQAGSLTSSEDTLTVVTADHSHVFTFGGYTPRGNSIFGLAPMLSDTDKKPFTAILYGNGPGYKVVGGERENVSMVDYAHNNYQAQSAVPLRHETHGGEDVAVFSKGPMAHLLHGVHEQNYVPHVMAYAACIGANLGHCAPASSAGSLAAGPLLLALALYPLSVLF
# [4] = target: T3, Heat shock factor protein 1 (Mus musculus, UniProt P38532); experiment: decrease of HSF1-responsive luciferase luminescence – cell-based, NIH3T3, dose retest, confirmation (AID 2382); format: functional;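 note: NIH3T3 fibroblasts with HSF1-driven luciferase reporter stressed by proteasome inhibitor MG132; luminescence from HSF1-driven luciferase expression after 8 hours of MG132 stress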
# T3 sequence (P38532 whole entry): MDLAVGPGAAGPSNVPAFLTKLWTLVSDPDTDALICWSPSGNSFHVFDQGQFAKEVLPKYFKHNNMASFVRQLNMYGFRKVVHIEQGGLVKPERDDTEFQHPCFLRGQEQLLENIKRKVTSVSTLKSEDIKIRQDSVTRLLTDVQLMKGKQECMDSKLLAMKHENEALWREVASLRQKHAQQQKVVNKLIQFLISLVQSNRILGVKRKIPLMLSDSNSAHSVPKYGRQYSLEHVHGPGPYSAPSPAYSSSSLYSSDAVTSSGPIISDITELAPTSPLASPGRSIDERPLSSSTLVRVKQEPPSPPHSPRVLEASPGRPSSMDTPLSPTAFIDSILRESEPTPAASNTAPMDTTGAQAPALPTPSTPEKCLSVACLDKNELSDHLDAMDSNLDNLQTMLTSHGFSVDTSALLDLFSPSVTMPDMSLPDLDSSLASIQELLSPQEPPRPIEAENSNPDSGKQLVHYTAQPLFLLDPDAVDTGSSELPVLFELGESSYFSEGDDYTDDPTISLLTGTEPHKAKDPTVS
# [5] = target: T1, Intestinal-type alkaline phosphatase; experiment: activation of human intestinal alkaline phosphatase – biochemical, luminescent, uHTS hits, set 2, dose response (AID 488817); format: functional;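 note: potency of activators that raise enzyme activity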
# Streptococcus = experiment: GAS UMAA2166 growth inhibition – luminescence, BacTiterGlo, counter-screen for streptokinase expression inhibitor project, dose response (AID 1915); format: functional, organism-based;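 note: potency for reduction of bacterial viability or growth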
# [6] = target: T4, Delta-type opioid receptor (Homo sapiens, UniProt P41143); experiment: HTS Image-Based Screen for Antagonists of the DOR Receptor. [Related pubchem assays (depositor defined):AID1777, AID1785, AID1786, AID2133]; format: functional
# T4 sequence (P41143 whole entry): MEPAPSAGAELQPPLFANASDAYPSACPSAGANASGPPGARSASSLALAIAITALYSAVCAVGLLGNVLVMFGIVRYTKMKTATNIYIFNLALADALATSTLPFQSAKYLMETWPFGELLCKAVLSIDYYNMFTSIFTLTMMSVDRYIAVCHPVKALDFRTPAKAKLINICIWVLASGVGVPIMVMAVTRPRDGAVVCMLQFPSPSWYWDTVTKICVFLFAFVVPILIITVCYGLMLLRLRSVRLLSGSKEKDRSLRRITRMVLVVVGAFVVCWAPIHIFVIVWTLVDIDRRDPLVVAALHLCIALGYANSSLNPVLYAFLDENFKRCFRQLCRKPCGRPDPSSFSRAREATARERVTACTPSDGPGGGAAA
# [7] = target: T4, Delta-type opioid receptor; experiment: HTS Image-Based Screen for Agonists of the DOR Receptor. [Related pubchem assays (depositor defined):AID1777, AID1786, AID2133]; format: functional
# [8] = NIH3T3 cell viability loss – ATP luminescence, mouse fibroblasts, counter-screen, dose response (AID 2010); format: functional, cell-based;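 note: cells exposed to compound for about 90 hours before reading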
# Beta-galactosidase [9] = target: T5, Beta-galactosidase (Escherichia coli, UniProt Q8VNN2); experiment: detection-enzyme interference by beta-gal modulators – biochemical, E. coli enzyme, set 3, artefact control for CCR6 antagonist project, dose response (AID 504712); format: functional
# T5 sequence (Q8VNN2 whole entry): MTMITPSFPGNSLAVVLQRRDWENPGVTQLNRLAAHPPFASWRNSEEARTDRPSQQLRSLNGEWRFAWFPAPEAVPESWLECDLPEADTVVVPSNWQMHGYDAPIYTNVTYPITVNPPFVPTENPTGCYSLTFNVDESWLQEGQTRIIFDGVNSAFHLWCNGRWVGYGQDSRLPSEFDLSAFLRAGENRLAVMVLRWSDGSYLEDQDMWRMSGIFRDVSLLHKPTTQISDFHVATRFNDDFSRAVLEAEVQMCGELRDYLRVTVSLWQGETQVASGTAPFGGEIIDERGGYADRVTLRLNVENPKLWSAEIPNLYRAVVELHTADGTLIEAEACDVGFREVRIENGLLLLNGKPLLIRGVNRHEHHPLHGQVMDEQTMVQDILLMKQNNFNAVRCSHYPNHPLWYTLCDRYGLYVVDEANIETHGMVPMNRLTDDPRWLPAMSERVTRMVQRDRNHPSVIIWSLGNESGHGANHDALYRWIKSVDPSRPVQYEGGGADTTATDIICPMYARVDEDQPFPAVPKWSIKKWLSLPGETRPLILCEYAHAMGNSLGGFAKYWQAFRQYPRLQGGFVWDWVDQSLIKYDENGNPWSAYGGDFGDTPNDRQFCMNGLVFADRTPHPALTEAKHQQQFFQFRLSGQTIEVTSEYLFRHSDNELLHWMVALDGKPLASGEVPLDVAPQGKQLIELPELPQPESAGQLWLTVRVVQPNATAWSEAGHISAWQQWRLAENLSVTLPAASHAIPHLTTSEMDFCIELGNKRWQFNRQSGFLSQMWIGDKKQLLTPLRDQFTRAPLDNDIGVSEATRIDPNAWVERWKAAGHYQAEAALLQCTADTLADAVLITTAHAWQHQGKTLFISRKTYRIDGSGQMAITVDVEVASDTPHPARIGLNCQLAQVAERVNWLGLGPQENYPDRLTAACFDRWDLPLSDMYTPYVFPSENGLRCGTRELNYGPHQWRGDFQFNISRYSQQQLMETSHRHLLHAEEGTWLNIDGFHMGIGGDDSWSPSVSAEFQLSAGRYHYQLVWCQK
# [10] = fluconazole-exposed Candida albicans growth modulators – fluorescence, retest, confirmation (AID 2467); format: functional, cell-based
# [11] = NIH-3T3 fibroblast cytotoxicity, dose response, cytotoxicity control, cell-based, fluorescence, Alamar Blue, secondary assay (AID 2327); format: functional;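 note: NIH-3T3 mouse fibroblasts cultured with fluconazole at 8 µg/mL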
# Vero = experiment: cells; format: functional; conditions: Chlorocebus sabaeus
# [12] = target: G-protein coupled receptor 55 (Homo sapiens, UniProt Q9Y2T6); experiment: inhibition of LPI-stimulated GPR55 beta-arrestin translocation – imaging, U2OS, beta-arrestin-GFP, LPI agonist, primary screen (AID 2013); format: functional;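 note: antagonist potency measured as reduced agonist-driven arrestin aggregation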
# Chain of G-protein coupled receptor 55 (Q9Y2T6 whole entry): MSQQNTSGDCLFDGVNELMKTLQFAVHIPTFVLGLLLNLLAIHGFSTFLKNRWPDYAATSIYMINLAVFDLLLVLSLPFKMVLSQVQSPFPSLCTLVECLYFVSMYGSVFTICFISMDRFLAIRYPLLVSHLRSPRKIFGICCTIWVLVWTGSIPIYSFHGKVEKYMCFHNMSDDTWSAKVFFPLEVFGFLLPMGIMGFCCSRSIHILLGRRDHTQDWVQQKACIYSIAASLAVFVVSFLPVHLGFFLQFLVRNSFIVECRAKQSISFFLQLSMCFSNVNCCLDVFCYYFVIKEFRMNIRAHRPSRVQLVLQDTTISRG
# [13] = target: T6, Kappa-type opioid receptor (Homo sapiens, UniProt P41145); format: functional
# T6 sequence (P41145 whole entry): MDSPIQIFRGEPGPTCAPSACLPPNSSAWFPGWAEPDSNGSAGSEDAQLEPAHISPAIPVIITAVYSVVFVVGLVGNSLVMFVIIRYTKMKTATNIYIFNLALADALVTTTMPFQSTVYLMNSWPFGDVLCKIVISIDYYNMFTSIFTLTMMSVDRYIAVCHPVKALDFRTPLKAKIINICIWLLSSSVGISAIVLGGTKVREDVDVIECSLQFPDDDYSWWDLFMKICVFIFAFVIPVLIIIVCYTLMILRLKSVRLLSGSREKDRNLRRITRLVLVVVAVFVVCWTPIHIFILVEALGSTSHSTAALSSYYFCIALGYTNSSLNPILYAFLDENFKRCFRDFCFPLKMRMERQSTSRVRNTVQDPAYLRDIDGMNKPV
# Mu-type opioid receptor = Mu-type opioid receptor (Homo sapiens, UniProt P35372); experiment: HTS Image-Based Screen for Agonists of the MOR Receptor. [Related pubchem assays (depositor defined):AID1777, AID1785, AID1786, AID2133]; format: functional;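 note: imaging of beta-arrestin GFP recruitment into spots after receptor activation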
# Chain of Mu-type opioid receptor (P35372 whole entry, the tested form may be a part): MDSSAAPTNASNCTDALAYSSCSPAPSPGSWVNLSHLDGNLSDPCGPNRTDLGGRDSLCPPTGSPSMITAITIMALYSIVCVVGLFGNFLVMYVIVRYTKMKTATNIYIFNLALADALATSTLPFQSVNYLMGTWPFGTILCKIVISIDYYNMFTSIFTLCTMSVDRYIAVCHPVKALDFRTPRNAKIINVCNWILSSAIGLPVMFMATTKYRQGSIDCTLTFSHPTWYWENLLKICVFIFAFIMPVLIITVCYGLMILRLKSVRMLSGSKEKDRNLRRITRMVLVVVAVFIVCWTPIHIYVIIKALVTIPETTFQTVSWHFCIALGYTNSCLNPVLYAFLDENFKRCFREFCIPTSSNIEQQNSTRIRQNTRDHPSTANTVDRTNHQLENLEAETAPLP
# [14] = target: Photoreceptor-specific nuclear receptor (Homo sapiens, UniProt Q9Y5X4); format: functional, cell-based;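 note: CHO-S cells with Gal4-NCOR and VP16-NR2E3 two-hybrid luciferase reporter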
# Beta-galactosidase [15] = target: T5, Beta-galactosidase; format: functional
# [16] = Trypanosoma cruzi growth suppression in host cells – NIH3T3 host cells, beta-gal luminescence, confirmation (AID 2044); format: functional, cell-based;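 note: intracellular parasites grown in NIH/3T3 mouse fibroblasts as host cells; luminescent beta-galactosidase reporter signal from transgenic T. cruzi replicating inside host cells; inhibitors lower the luminescence signal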
# [17] = system: Streptococcus sp. 'group A'; experiment: Streptococcus pyogenes SK(-)GAS viability under kanamycin – luminescence, BacTiterGlo, confirmation, counter-screen for streptokinase expression inhibitor project, dose response (AID 1900); format: functional, organism-based
# [18] = target: T6, Kappa-type opioid receptor; format: functional; remark: listed apart in the source
# [19] = non-specific 3'UTR reporter inhibition in Clone20-Shn3RL – cell-based, Renilla luciferase, cherry-picked, counter-screen for Shn3 inhibitor project, dose response (AID 624133); format: functional
# HEK293 [20] = experiment: cells; format: functional, cell-based; conditions: Homo sapiens
# [21] = decrease of insulin promoter-GFP reporter – imaging, high-content screening, mouse beta cells (AID 1628); format: functional; conditions: MIN6
# [22] = target: Signal transducer and activator of transcription 1-alpha/beta (Homo sapiens, UniProt P42224); experiment: STAT3 blockade with qPCR and toxicity readouts – cell-based, STAT1 panel, cytotoxicity, late-stage follow-up, panel member STAT1 Inhibition (AID 2078)
# HEK293 [23] = experiment: cells; format: functional, cell-based; conditions: Homo sapiens; remark: listed apart in the source
# [24] = target: Signal transducer and activator of transcription 3 (Homo sapiens, UniProt P40763); experiment: STAT3 blockade with qPCR and toxicity readouts – cell-based, STAT1 panel, cytotoxicity, late-stage follow-up, panel member STAT3 Inhibition (AID 2078)
# Chain of Signal transducer and activator of transcription 3 (P40763 whole entry): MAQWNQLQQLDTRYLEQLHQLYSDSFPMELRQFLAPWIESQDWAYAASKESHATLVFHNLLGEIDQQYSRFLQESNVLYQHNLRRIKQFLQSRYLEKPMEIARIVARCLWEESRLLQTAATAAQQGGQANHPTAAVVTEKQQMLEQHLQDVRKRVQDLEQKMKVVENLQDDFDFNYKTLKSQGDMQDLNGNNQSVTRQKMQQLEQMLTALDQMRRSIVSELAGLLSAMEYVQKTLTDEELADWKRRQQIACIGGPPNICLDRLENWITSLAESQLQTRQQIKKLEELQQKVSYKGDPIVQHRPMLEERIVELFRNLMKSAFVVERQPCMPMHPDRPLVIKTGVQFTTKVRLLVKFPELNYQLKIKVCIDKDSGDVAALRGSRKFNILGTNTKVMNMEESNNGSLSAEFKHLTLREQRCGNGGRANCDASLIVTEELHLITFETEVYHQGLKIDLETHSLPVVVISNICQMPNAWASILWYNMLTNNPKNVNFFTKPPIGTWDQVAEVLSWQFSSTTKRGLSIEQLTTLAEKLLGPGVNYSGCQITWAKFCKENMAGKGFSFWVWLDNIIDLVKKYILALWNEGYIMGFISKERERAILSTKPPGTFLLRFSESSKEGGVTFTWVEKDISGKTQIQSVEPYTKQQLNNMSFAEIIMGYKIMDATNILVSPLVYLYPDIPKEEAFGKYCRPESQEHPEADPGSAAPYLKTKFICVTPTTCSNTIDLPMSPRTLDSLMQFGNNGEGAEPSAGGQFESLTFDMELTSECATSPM
# HEK293 [25] = experiment: inhibition of NOD1-driven NF-kB reporter – cell-based, luminescence, uHTS, primary screen (AID 1578); format: functional; conditions: Homo sapiens
# HEK293 [26] = experiment: NOD2 signaling inhibitors in MDP-stimulated cells, cell-based, uHTS, luminescence (AID 2001); format: functional; conditions: Homo sapiens
# [27] = loss of viability in HepG2 cells – cell-based, CellTiter-Glo, cherry-picked, cytotoxicity control for Shn3 inhibitor project, dose response (AID 624134); format: functional
# [28] = target: ATP-dependent molecular chaperone HSP82 (Candida albicans (strain WO-1) (Yeast), UniProt C4YTQ8); experiment: steroid-induced GRE reporter decrease in yeast – S. cerevisiae, luminescence, Hsp90 inhibitor project, dose response (AID 2400); format: functional, cell-based;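 note: beta-galactosidase luminescence from glucocorticoid response element reporter as proxy for Hsp90 function; inhibitor potency where signal loss means Hsp90 inhibition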
# [29] = MIN6 cell viability loss – mouse insulinoma, cytotoxicity control, dose response (AID 2122); format: functional;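 note: confirmatory high-throughput counterscreen run to flag cytotoxic compounds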
# [30] = target: T7, Serine/threonine-protein phosphatase (Candida dubliniensis (strain CD36 / CBS 7987 / NCPF 3949 / NRRLY-17841) (Yeast), UniProt B9W6M3); experiment: blockers of CaCl2-induced CDRE-lacZ signaling – S. cerevisiae, luminescence, secondary, dose response (AID 2388); format: functional, cell-based;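 note: yeast reporter cells carrying a calcineurin-responsive lacZ construct stimulated with calcium chloride; luminescent beta-galactosidase reporter signal in whole cells rather than isolated phosphatase activity; potency for inhibition where a drop in reporter signal means calcineurin blockade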
# T7 sequence (B9W6M3 whole entry): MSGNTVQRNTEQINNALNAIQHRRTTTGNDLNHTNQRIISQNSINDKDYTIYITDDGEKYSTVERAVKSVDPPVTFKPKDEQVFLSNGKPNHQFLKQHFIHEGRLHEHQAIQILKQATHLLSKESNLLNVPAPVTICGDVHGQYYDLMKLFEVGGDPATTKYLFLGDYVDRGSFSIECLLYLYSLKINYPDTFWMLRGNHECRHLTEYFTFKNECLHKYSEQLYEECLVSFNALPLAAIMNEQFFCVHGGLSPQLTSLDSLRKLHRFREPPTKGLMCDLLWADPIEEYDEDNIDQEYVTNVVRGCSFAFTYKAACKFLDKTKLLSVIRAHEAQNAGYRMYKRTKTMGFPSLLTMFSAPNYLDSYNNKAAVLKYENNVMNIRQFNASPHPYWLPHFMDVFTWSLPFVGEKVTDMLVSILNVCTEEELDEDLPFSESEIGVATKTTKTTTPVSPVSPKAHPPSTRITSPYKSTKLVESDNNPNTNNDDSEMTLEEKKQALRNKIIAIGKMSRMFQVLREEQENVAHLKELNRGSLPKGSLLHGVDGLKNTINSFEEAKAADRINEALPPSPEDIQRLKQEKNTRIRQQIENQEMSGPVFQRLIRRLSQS
# [31] = reduction of Shn3 3'UTR-driven luciferase in osteoblasts – cell-based, Clone20 osteoblasts, firefly luciferase, cherry-picked, dose response (AID 624132); format: functional;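 note: firefly luciferase luminescence from reporter carrying the Shn3 3'UTR in osteoblasts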
# HEK293 [32] = experiment: cells; conditions: Homo sapiens
# Tumor necrosis factor = Tumor necrosis factor (Homo sapiens, UniProt P01375); experiment: analog potency on TNFa NF-kB signaling – cell-based, revised, SAR follow-up (AID 2337); format: functional
# Chain of Tumor necrosis factor (P01375 whole entry): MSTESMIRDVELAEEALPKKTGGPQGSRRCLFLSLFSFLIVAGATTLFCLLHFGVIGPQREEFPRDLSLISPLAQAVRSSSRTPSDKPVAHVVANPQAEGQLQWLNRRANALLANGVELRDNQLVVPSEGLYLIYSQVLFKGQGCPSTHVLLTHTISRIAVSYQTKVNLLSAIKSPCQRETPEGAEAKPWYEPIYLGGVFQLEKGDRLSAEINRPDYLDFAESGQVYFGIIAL
# T1 sequence (P09923 whole entry): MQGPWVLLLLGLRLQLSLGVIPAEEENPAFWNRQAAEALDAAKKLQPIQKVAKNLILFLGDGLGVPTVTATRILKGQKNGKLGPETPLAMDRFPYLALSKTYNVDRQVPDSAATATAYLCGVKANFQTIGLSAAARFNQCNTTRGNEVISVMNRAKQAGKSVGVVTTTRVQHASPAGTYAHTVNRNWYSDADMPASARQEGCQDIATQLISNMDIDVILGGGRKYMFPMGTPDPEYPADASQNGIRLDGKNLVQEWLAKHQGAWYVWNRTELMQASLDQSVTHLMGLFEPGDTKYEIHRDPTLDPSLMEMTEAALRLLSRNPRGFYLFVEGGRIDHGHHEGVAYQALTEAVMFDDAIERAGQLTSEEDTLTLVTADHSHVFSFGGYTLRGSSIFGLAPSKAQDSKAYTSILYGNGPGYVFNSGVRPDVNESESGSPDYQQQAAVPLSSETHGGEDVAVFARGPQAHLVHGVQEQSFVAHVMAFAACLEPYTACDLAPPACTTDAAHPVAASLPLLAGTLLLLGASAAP
Structure (SMILES),EC50 [1],IC50 [2],EC50 [3],EC50 [5],IC50 [6],EC50 [7],EC50 [10],EC50 [11],IC50 [13],EC50 (Mu-type opioid receptor),EC50 (Beta-galactosidase [15]),IC50 [18] [µM],further results
CCn1c(C)nc2cc(C(=O)NNC(=S)Nc3ccccc3)ccc21,10.6 µM (active),50.3 µM (active),15.4 µM (active),15.6 µM (active),,,,,,,,,EC50 [4]: 0.192 µM (active)
Cc1cccc(Cc2cnc(N3C(=N)SC(C)C3=O)s2)c1 (stereo not drawn),,,,,> 32 µM (inactive),> 32 µM (inactive),1.91 µM (active),> 160 µM (inconclusive),5.68 µM (active),> 32 µM (inactive),> 31.5 µM (inactive),> 32,EC50 (Streptococcus): 7.82 µM (active); EC50 [8]: > 60 µM (not active); IC50 (Beta-galactosidase [9]): > 66.6 µM (inactive); CC50 (Vero): > 25 µM (active); IC50 [12]: 0.847 µM (active); IC50 [14]: 1.87 µM (active); EC50 [16]: 2.41 µM (active); EC50 [17]: 0.179 µM (active)
c1ccc(CC2CCN(c3ncnc4sccc34)CC2)cc1,,,,,,,0.574 µM (active),> 160 µM (inconclusive),,,,,AC50 [19]: 5.88 µM (active); IC50 (HEK293 [20]): > 20 µM (inactive); IC50 [21]: 0.756 µM (active); IC50 [22]: > 55.7 µM (inactive); IC50 (HEK293 [23]): > 20 µM (inactive); IC50 [24]: 1.85 µM (active); EC50 (HEK293 [25]): > 20 µM (inactive); IC50 (HEK293 [26]): > 20 µM (inactive); AC50 [27]: 1.84 µM (active); EC50 [28]: 19.5 µM (active); IC50 [29]: 0.505 µM (active); EC50 [30]: > 180 µM (inactive); AC50 [31]: 0.362 µM (active)
CCN(CC)C(CNC(=O)c1cc(=O)[nH]c2ccccc12)c1ccccc1Cl (stereo not drawn),,,,,> 32 µM (inactive),> 32 µM (inactive),,,14.9 µM (active),> 32 µM (inactive),> 31.5 µM (inactive),14.6,
O=C(Nc1ccc(F)cc1)c1ccc(CN2CCc3ccccc32)cc1,,,,,,,,,,,,,IC50 (HEK293 [32]): > 20 µM (inactive); IC50 (Tumor necrosis factor): > 20 µM (inactive)
C[C@@H](NC(=O)c1[nH]cnc1C(=O)Nc1ccon1)c1ccccc1,12 µM (active),39.3 µM (active),25.9 µM (active),16.4 µM (active),,,,,,,,,
